Here are results for two compounds from patent US20200038513A1, “MODULATORS OF FAK PROTEOLYSIS AND ASSOCIATED METHODS OF USE” (ARVINAS OPERATIONS, INC., priority 2018, published 2020).

Assay [1] deals with Fak (Homo sapiens, UniProt Q05397). Put plainly: Fak degradation, immunoblotting in PC3 cells. Type of assay: cell-based. As to conditions: 24 hour treatment; for Dmax: PC-3, degradation maximum, n = 3. As to the method: PC3 cells were cultured in F12-K (Kaighn's Modification of Ham's F-12 Medium), supplemented with 10% fetal bovine serum (FBS) and 1% penicillin-streptomycin at 37° C. and 5% CO2.
Sequence of Fak (Q05397 whole entry): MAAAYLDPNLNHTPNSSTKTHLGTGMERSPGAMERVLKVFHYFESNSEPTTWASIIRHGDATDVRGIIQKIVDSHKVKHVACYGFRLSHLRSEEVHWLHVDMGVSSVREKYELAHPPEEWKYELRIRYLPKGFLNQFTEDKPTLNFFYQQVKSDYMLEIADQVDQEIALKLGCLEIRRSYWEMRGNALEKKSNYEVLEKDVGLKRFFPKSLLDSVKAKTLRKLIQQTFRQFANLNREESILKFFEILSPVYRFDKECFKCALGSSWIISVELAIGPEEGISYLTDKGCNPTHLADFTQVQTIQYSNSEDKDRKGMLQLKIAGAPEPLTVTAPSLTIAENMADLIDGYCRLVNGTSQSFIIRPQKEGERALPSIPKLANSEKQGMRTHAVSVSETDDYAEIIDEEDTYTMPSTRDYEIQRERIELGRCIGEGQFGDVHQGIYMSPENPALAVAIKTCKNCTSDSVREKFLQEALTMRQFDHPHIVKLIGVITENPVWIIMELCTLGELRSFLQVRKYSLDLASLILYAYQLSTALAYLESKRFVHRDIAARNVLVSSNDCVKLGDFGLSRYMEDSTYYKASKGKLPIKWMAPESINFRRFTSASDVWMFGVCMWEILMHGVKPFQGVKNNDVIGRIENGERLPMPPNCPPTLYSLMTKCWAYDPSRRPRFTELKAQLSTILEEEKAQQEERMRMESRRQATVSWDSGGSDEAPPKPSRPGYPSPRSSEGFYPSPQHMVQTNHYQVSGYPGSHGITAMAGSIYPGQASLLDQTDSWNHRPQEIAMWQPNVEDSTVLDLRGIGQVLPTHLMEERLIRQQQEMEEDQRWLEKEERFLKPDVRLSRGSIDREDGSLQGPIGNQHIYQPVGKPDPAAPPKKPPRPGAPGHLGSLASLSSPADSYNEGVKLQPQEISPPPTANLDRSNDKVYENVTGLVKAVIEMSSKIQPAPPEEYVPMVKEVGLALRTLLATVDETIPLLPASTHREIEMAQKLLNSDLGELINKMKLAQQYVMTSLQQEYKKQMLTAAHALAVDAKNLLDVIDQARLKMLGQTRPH
If not indicated otherwise, cells were seeded and grown to 80% confluency and were treated with compound or control for 24 hours. […] After 20 minutes the mixture was spun down at 16,000×g for 10 minutes at 4° C. to pellet insoluble materials. Protein concentration of supernatants were determined via BCA assay (Thermo Fisher) before addition of NuPAGE sample buffer containing 5% β-Me and boiling at 95° C. for 10 minutes. Equal amounts of protein were subjected to SDS-PAGE and subsequent electrophoretic transfer onto nitrocellulose membrane. […] Immunoblots were developed using enhanced chemiluminescence and visualized using a Bio-Rad Chemi-Doc MP Imaging System and quantitated with Image Lab v.5.2.1 software (Bio-Rad Laboratories). Data analysis and statistics was performed using Prism 7.0 (GraphPad).
Examination of Target Protein (Fak) Degradation.

Assay [2] deals with p-Fak(Y397). The assay is described as follows: Fak activation, western blot in PC3 cells. Type of assay: cell-based, human. As to conditions: serum deprived PC3 cells, 24 h. As to the method: (§1) If not indicated otherwise, cells were seeded and grown to 80% confluency and were treated with compound or control for 24 hours. Subsequently, the growth media was removed and the cells lysed by the addition of lysis buffer (25 mM Tris, pH 7.4; 1% NP-40, 0.25% deoxycholate, 1 mM sodium vanadate, 10 mM sodium fluoride, 10 mM sodium pyrophosphate, 20 mM β-glycerophosphate and 1× complete EDTA-free protease inhibitor cocktail (Roche)). After 20 minutes the mixture was spun down at 16,000×g for 10 minutes at 4° C. to pellet insoluble materials. Protein concentration of supernatants were determined via BCA assay (Thermo Fisher) before addition of NuPAGE sample buffer containing 5% β-Me and boiling at 95° C. for 10 minutes. Equal amounts of protein were subjected to SDS-PAGE and subsequent electrophoretic transfer onto nitrocellulose membrane. Rabbit antibodies were purchased from Cell Signaling: Fak (3285), p-Fak (3283), p-Paxillin (2541), p-Akt (S473)(4060), GAPDH (2118), Androgen Receptor (5153), p-Src(Y527)(2105), p-S6RP (2215). Mouse antibodies were purchased from Cell Signaling: tubulin (3873), S6RP (2317). Secondary antibody ∝-rabbit (31460) or ∝-mouse (31444) was coupled to horseradish peroxidase and purchased from Thermo Fisher. Immunoblots were developed using enhanced chemiluminescence and visualized using a Bio-Rad Chemi-Doc MP Imaging System and quantitated with Image Lab v.5.2.1 software (Bio-Rad Laboratories). Data analysis and statistics was performed using Prism 7.0 (GraphPad).
Fak levels are undetectable at concentrations of 100 nM through 1 μM of exemplary compound 102, and slightly rebound at concentrations of 5 μM (10%) and 10 μM (27%) due to an observed hook effect. […] Paxillin, a downstream target of the Fak-Src complex, has been associated with cell migration. […] Akt is a kinase that is tied to the Fak signaling cascade via PI3K, but can be activated through other pathways as well. […] A maximum p-Akt suppression of 93% is observed at 1 μM of exemplary compound 102. […]

The test system of assay [3] is MDA-MB-231 cells. The assay is described as follows: Transwell invasion assay. Type of assay: cell-based, human. As to conditions: 100 nM, 24 hours. As to the method:
On the first day, 0.2× Basement Membrane Extract (BME) working solution was prepared by diluting 5×BME stock solution in 1× Travigen Inc. coating buffer. Briefly, 100 μL of 10× coating buffer was diluted in 900 μL of sterile water to make 1× coating buffer. Then 960 μL of 1× coating buffer was mixed with 40 μL of 5×BME to make working 0.2×BME solution. Corning Transwell permeable inserts (Costar Transwell chambers, Corning) were placed on a 24-well plate and 100 μL of 0.2×BME solution was added to each Transwell insert and incubated for 16 hours. Following day, MDA-MB-231 cells were trypsinized and cells were suspended in serum free medium. Approximately 100 μL from cell suspension (˜3×10^5 cells) was added to each Transwell insert followed by another 100 μL of exemplary compound or control containing serum free RPMI medium. The lower chamber was filled with 10% FBS containing RPMI medium and the whole setup was incubated at 37° C. 1-5% CO2 for 24 hours. After 24 hours, cell culture medium was removed from both lower and upper chambers and Transwell inserts were washed three times with PBS. […] Images were then analyzed by ImageJ software and number of cells on the bottom side of the membrane were counted and presented as a bar graph using Prism 7.0 (GraphPad). Differences among groups were analyzed by Welch's t-test and considered significant when P<0.05. […]

In assay [4] the test system is p-Akt (S473). Put plainly: Fak downstream signaling, western blot in PC3 cells. Type of assay: cell-based, human. As to conditions: serum deprived PC3 cells, 24 h. As to the method: as §1
(§2) Fak levels are undetectable at concentrations of 100 nM through 1 μM of exemplary compound 102, and slightly rebound at concentrations of 5 μM (10%) and 10 μM (27%) due to an observed hook effect. […] Paxillin, a downstream target of the Fak-Src complex, has been associated with cell migration. […] Akt is a kinase that is tied to the Fak signaling cascade via PI3K, but can be activated through other pathways as well. […] A maximum p-Akt suppression of 93% is observed at 1 μM of exemplary compound 102. […] A similar differential can be observed when exemplary compound 102 is compared to its non-degrading diastereomer exemplary compound 106 (FIGS. 9A-9F and 10A-10D). These differences are the result of the distinct MOA Fak degraders are able to provide compared to inhibitors.

Assay [5] relates to p-paxillin. The assay is described as above. As to conditions: serum deprived PC3 cells, 24 h. Format: cell-based, human. As to the method: as §1, §2

In assay [1] (PC3 cells), `Cc1ncsc1-c1ccc(CNC(=O)[C@@H]2C[C@@H](O)CN2C(=O)[C@@H](NC(=O)CCOCCOc2ccc(Nc3ncc(C(F)(F)F)c(NCc4cccc(N(C)S(C)(=O)=O)c4)n3)cc2)C(C)(C)C)cc1` [Compound 102, (2S,4R)-1-((S)-3,3-dimethyl-2-(3-(2-(4-((4-((3-(N-methylmethylsulfonamido)benzyl)amino)-5-(trifluoromethyl)pyrimidin-2-yl)amino)phenoxy)ethoxy)propanamido)butanoyl)-4-hydroxy-N-(4-(4-methylthiazol-5-yl)benzyl)pyrrolidine-2-carboxamide] had a maximal degradation (Dmax) of 99%. Moreover, in assay [1] (half-maximal degradation concentration, PC3 cells), the half-maximal degradation concentration (DC50) is 3.3 nM. The “total Fak remaining” value came out at 34% in assay [1] (serum deprived PC3 cells, 10 nM) and 5% in assay [1] (serum deprived PC3 cells, 50 nM). Besides, the Fak levels entry in assay [1] (serum deprived PC3 cells, 100 nM through 1 μM) is listed as “undetectable”. Moreover, the “Fak levels (rebound, hook effect)” value is 10% in assay [1] (serum deprived PC3 cells, 5 μM) and 27% in assay [1] (serum deprived PC3 cells, 10 μM). Besides, in assay [2] (between 100 nM and 5 μM), the p-Fak levels result is “less than 5%”. The “Fak activation (p-Fak(Y397)) compared to DMSO (in words)” value in assay [2] (increasing concentrations) is “significantly reduced”. The “reduction of cell invasion” value in assay [3] is recorded as 65%. Also, the “maximum p-Akt suppression” value in assay [4] (1 μM) turned out to be 93%. In assay [4] (increasing concentrations), the “effect on p-Akt (S473) (in words)” value is recorded as “significant at all treatment concentrations”. Besides, the “reduction of p-paxillin levels” value in assay [5] (above 50 nM) is given as 85-90%.
With `CNC(=O)c1ccc(Nc2ncc(C(F)(F)F)c(NCc3nccnc3N(C)S(C)(=O)=O)n2)cc1` [Defactinib, defactinib, reference compound], the Dmax in assay [1] (PC3 cells) stood at 0%. The “lowest level of p-Fak activity (remaining)” value in assay [2] (10 μM) is 26%. Moreover, in assay [3], the “effect on cell invasion (in words)” value is given as “no significant effect”. Also, the “maximum reduction of p-Akt” value in assay [4] (10 μM) stood at 88%. The “maximum reduction of p-paxillin levels” value in assay [5] (10 μM) is on record as 62%.
